Measurements taken from US9315505B2, “Heterocyclic compounds and uses thereof” (INTELLIKINE LLC, priority 2009, dated 2016).
Where two headings read alike, the source gives them in different places.

Key:
[1] = target: T1, PI3K α (Homo sapiens, UniProt P42336); test: In vitro IC50, PI3K α (p110α/p85α inhibition assay); type: biochemical
T1 construct: purchased Upstate
Protocol: (§1) IC50 values are measured using either a standard TLC assay for lipid kinase activity (described below) or a high-throughput membrane capture assay. Kinase reactions are performed by preparing a reaction mixture containing kinase, inhibitor (2% DMSO final concentration), buffer (25 mM HEPES, pH 7.4, 10 mM MgCl2), and freshly sonicated phosphatidylinositol (100 μg/ml). Reactions are initiated by the addition of ATP containing 10 μCi of γ-32P-ATP to a final concentration 10 or 100 μM and allowed to proceed for 5 minutes at room temperature. For TLC analysis, reactions are then terminated by the addition of 105 μl 1N HCl followed by 160 μl CHCl3:MeOH (1:1). The biphasic mixture is vortexed, briefly centrifuged, and the organic phase is transferred to a new tube using a gel loading pipette tip precoated with CHCl3. This extract is spotted on TLC plates and developed for 3-4 hours in a 65:35 solution of n-propanol:1M acetic acid. The TLC plates are then dried, exposed to a phosphorimager screen (Storm, Amersham), and quantitated.
(§2) Other commercial kits or systems for assaying PI3-K activities are available. The commercially available kits or systems can be used to screen for inhibitors and/or agonists of PI3-Ks including but not limited to PI 3-Kinase α, β, δ, and γ. An exemplary system is PI 3-Kinase (human) HTRF™ Assay from Upstate. […] Briefly, the assay is a time resolved FRET assay that indirectly measures PIP3 product formed by the activity of a PI3-K. The kinase reaction is performed in a microtitre plate (e.g., a 384 well microtitre plate). The total reaction volume is approximately 20 ul per well. In the first step, each well receives 2 ul of test compound in 20% dimethylsulphoxide resulting in a 2% DMSO final concentration. Next, approximately 14.5 ul of a kinase/PIP2 mixture (diluted in 1× reaction buffer) is added per well for a final concentration of 0.25-0.3 ug/ml kinase and 10 uM PIP2. The plate is sealed and incubated for 15 minutes at room temperature. To start the reaction, 3.5 ul of ATP (diluted in 1× reaction buffer) is added per well for a final concentration of 10 uM ATP. The plate is sealed and incubated for 1 hour at room temperature. The reaction is stopped by adding 5 ul of Stop Solution per well and then 5 ul of Detection Mix is added per well. The plate is sealed, incubated for 1 hour at room temperature, and then read on an appropriate plate reader. Data is analyzed and IC50s are generated using GraphPad Prism 5.

[2] = tested on: Balb/c splenic B cells; test: B cell activation and proliferation assay (Alamar Blue); type: cell-based; settings: Mus musculus
Protocol: The ability of one or more subject compounds to inhibit B cell activation and proliferation is determined according to standard procedures known in the art. For example, an in vitro cellular proliferation assay is established that measures the metabolic activity of live cells. The assay is performed in a 96 well microtiter plate using Alamar Blue reduction. Balb/c splenic B cells are purified over a Ficoll-Paque™ PLUS gradient followed by magnetic cell separation using a MACS B cell Isolation Kit (Miletenyi). Cells are plated in 90 ul at 50,000 cells/well in B Cell Media (RPMI+10% FBS+Penn/Strep+50 uM bME+5 mM HEPES). A compound disclosed herein is diluted in B Cell Media and added in a 10 ul volume. Plates are incubated for 30 min at 37 C and 5% CO2 (0.2% DMSO final concentration). A 50 ul B cell stimulation cocktail is then added containing either 10 ug/ml LPS or 5 ug/ml F(ab′)2 Donkey anti-mouse IgM plus 2 ng/ml recombinant mouse IL4 in B Cell Media. Plates are incubated for 72 hours at 37° C. and 5% CO2. A volume of 15 uL of Alamar Blue reagent is added to each well and plates are incubated for 5 hours at 37 C and 5% CO2. Alamar Blue fluoresce is read at 560Ex/590Em, and IC50 or EC50 values are calculated using GraphPad Prism 5.

[3] = target: T2, PI3K δ (Homo sapiens, UniProt O00329); test: In vitro IC50, PI3K δ (p110δ/p85α inhibition assay); type: biochemical
T2 construct: purchased Upstate
Protocol: as §1, §2

[4] = target: T3, PI3K γ (Homo sapiens, UniProt P48736); test: In vitro IC50, PI3K γ (p110γ inhibition assay); type: biochemical; settings: in vitro kinase assay
T3 construct: purchased Sigma
Protocol: as §1, with “Class I PI3-Ks can be either purchased (p110α/p85α, p110β/p85α, p110δ/p85α from Upstate, and p110γ from Sigma) or expressed as previously described (Knight et al., 2004). IC50” for “IC50”, “quantitated. For each compound, kinase activity is measured at 10-12 inhibitor concentrations representing two-fold dilutions from the highest concentration tested (typically, 200 μM).” for “quantitated.”
as §2

[5] = in vitro kinase assay, read-out: IC50(nM) PI3K α
[6] = read-out: B cell proliferation EC50
[7] = in vitro kinase assay, read-out: IC50(nM) PI3K δ

T3 sequence (P48736 whole entry): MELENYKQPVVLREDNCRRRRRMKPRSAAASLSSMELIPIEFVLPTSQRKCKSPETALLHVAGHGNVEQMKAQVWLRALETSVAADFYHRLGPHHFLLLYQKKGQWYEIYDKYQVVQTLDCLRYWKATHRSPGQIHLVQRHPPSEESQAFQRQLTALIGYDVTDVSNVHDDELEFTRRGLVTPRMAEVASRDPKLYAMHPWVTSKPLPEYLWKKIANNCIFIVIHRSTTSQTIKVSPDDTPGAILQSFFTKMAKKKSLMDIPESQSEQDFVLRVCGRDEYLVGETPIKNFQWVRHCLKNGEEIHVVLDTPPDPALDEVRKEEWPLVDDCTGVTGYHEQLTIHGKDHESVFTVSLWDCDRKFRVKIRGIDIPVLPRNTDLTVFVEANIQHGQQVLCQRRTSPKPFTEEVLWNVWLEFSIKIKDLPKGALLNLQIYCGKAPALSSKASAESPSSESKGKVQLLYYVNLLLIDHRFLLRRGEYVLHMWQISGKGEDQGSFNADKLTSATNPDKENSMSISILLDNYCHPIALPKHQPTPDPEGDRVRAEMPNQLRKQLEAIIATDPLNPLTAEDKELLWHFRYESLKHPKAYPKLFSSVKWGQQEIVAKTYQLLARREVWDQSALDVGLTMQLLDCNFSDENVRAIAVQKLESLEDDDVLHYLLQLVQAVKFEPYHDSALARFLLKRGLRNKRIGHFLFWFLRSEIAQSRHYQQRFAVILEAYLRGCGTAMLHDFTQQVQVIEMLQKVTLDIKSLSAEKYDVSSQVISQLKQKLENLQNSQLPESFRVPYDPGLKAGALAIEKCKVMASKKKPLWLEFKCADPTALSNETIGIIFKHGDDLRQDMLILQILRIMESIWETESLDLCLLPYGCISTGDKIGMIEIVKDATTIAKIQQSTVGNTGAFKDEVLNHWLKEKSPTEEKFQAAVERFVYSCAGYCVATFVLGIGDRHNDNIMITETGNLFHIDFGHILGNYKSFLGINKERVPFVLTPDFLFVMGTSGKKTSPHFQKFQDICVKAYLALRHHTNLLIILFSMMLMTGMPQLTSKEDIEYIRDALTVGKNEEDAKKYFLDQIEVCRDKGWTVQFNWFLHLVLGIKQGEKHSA
T2 sequence (O00329 whole entry): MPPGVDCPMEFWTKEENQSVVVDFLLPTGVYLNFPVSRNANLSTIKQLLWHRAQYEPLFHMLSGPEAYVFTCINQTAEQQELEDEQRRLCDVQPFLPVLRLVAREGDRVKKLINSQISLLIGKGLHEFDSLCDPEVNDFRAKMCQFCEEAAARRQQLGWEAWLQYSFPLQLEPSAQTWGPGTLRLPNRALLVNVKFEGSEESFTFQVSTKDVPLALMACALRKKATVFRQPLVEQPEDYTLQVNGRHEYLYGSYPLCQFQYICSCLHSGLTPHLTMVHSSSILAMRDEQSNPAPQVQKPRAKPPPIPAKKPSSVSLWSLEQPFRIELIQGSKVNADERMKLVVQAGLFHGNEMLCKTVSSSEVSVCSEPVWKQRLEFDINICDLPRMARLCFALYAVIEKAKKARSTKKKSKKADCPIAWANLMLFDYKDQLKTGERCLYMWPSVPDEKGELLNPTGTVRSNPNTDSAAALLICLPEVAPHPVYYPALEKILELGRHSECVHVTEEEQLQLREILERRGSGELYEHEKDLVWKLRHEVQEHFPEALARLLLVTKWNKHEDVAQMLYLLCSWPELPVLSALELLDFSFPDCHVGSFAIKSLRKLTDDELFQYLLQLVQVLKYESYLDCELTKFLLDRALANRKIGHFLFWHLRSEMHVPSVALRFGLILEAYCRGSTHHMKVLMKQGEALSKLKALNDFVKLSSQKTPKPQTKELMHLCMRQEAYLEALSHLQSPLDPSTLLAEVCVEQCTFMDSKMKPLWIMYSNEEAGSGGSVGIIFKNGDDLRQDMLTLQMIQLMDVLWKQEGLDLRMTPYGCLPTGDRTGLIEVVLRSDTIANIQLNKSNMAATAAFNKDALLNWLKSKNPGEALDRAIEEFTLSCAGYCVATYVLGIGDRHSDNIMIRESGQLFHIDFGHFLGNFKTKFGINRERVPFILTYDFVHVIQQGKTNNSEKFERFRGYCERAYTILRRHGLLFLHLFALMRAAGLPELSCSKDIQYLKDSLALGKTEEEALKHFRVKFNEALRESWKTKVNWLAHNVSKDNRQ
T2 sequence (P27986 whole entry partner): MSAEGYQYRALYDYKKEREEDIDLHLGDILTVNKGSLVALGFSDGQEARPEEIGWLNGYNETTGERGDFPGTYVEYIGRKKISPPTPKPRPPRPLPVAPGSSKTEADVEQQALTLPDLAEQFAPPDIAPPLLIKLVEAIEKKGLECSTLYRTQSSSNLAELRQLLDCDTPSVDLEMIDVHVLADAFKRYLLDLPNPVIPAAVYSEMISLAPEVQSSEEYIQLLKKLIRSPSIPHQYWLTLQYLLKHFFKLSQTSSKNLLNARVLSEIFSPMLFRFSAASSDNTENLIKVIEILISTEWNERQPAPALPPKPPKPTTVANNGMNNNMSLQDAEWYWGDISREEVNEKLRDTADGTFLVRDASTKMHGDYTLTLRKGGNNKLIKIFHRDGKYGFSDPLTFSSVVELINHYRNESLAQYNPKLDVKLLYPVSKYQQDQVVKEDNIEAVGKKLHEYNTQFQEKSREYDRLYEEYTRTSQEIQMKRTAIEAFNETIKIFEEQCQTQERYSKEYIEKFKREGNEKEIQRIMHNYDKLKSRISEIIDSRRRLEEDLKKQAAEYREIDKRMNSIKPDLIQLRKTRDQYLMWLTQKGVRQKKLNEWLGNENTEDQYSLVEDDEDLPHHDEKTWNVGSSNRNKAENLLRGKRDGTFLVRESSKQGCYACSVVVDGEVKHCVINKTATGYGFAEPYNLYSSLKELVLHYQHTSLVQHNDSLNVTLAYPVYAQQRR
T1 sequence (P42336 whole entry): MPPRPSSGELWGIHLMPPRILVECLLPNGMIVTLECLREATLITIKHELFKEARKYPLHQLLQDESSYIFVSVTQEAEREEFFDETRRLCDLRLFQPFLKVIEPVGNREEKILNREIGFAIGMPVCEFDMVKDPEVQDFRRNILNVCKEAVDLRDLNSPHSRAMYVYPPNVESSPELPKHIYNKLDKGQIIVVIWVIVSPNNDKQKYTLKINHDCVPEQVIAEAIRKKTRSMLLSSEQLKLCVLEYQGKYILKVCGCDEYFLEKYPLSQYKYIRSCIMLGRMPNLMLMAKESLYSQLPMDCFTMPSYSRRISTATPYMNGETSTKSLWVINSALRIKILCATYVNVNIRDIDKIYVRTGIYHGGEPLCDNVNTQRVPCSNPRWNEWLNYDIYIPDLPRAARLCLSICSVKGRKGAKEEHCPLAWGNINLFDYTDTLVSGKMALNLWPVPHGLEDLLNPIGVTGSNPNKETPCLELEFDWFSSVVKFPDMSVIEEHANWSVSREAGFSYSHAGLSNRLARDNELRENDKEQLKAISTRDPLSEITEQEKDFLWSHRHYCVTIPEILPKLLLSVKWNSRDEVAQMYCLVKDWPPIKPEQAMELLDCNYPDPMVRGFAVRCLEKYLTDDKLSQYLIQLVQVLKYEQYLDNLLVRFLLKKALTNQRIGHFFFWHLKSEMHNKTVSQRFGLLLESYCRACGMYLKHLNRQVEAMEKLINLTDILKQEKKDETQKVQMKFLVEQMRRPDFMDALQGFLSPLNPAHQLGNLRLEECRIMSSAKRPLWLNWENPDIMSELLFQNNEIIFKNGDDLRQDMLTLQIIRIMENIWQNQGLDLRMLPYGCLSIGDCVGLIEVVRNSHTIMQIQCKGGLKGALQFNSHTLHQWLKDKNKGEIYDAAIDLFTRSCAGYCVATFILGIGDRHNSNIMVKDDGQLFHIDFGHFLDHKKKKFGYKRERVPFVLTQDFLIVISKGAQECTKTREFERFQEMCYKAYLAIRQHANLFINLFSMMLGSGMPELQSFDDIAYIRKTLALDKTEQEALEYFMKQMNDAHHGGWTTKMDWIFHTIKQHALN
T1 sequence (P27986 whole entry partner): as the sequence (P27986 whole entry partner) above

Row | IC50 [1, 5] [nM] | IC50 [3, 7] [nM] | IC50 [4] [nM] | IC50 [1] [nM] | IC50 [3] [nM] | SMILES | EC50 [2, 6] [nM] | EC50 ([2]; read-out: B cell proliferation EC50 (nM)) [nM]
1 | > 10000 | < 100 | > 10000 |  |  | Cc1cccc2cc(C(C)Nc3ncnc4[nH]cnc34)nc(CCN3CCN(C)CC3)c12 (centres unmarked) [Compound 20] | < 100 | 
2 | > 10000 | < 100 | > 10000 |  |  | CCN1CCC(Oc2nc(C(C)Nc3ncnc4[nH]cnc34)cc3cccc(C)c23)CC1 (centres unmarked) [Compound 16] | < 100 | 
3 | < 1000 | < 100 | < 100 |  |  | Cc1cccc2cc(Cn3nc(-c4ccc5oc(N)nc5c4)c4c(N)ncnc43)nc(N3CCN(C)CC3)c12 [Compound 17] | < 100 | 
4 | < 10000 | < 100 | > 10000 |  |  | CCN1CCC(Oc2nc(Cn3nc(-c4cn[nH]c4)c4c(N)ncnc43)cc3cccc(C)c23)CC1 [Compound 7] | < 100 | 
5 | < 1000 | < 100 | < 100 |  |  | CN(C)c1nc(Cn2nc(-c3ccc4oc(N)nc4c3)c3c(N)ncnc32)cc2ccccc12 [Compound 2] | < 1000 | 
6 | < 1000 | < 100 | < 1000 |  |  | Cc1cccc2cc(Cn3nc(-c4ccc5oc(N)nc5c4)c4c(N)ncnc43)nc(CCN3CCN(C)CC3)c12 [Compound 25] | < 100 | 
7 | < 100 | < 100 | < 100 |  |  | Cc1cccc2cc(Cn3nc(-c4ccc5oc(N)nc5c4)c4c(N)ncnc43)nc(OC3CCN(C)CC3)c12 [Compound 5] | < 100 | 
8 | < 10000 | < 100 | < 1000 |  |  | Nc1ncnc2c1c(-c1cn[nH]c1)nn2Cc1cc2cccc(Cl)c2c(N2CCOCC2)n1 [Compound 66] | < 100 | 
9 | > 10000 | < 1000 | < 10000 |  |  | C[C@H](Nc1ncnc2[nH]cnc12)c1cc2cccc(Cl)c2c(N2CCOCC2)n1 [Compound 62] | < 1000 | 
10 | > 10000 | < 100 | < 10000 |  |  | C[C@H](Nc1ncnc2[nH]cnc12)c1cc2cccc(Cl)c2c(N2CCCC2)n1 [Compound 63] | < 1000 | 
11 | < 1000 | < 100 | < 100 |  |  | Nc1nc2cc(-c3nn(Cc4cc5ccccc5c(N5CCCC5)n4)c4ncnc(N)c34)ccc2o1 [Compound 1] | < 1000 | 
12 | < 100 | < 100 | < 100 |  |  | Cc1cccc2cc(Cn3nc(-c4ccc5nc(N)sc5c4)c4c(N)ncnc43)nc(OC(C)C)c12 [Compound 31] | < 1000 | 
13 | > 10000 | < 1000 | < 10000 |  |  | C[C@H](Nc1ncnc2[nH]cnc12)c1cc2cccc(Cl)c2c(OC2CCN(S(C)(=O)=O)CC2)n1 [Compound 60] | < 1000 | 
14 |  |  | > 10000 | > 10000 | < 100 | Cc1cccc2cc(C(C)Nc3ncnc4[nH]cnc34)nc(OC3CCN(C)CC3)c12 (centres unmarked) [Compound 15] |  | < 100
15 | < 10000 | < 100 | < 1000 |  |  | Nc1ncnc2c1c(-c1cn[nH]c1)nn2Cc1cc2cccc(Cl)c2c(N2CCCC2)n1 [Compound 68] | < 1000 | 
16 | < 10000 | < 100 | > 10000 |  |  | Cc1cccc2cc(Cn3nc(-c4cn[nH]c4)c4c(N)ncnc43)nc(OC3CCN(C)CC3)c12 [Compound 3] | < 100 | 
17 | < 10000 | < 100 | < 1000 |  |  | CS(=O)(=O)N1CCN(c2nc(Cn3nc(-c4cn[nH]c4)c4c(N)ncnc43)cc3cccc(Cl)c23)CC1 [Compound 67] | < 1000 | 
18 | < 10000 | < 100 | < 10000 |  |  | Cc1cccc2cc(C(C)Nc3ncnc4[nH]cnc34)nc(CCN3CCN(S(C)(=O)=O)CC3)c12 (centres unmarked) [Compound 50] | < 100 | 
19 | > 10000 | < 1000 | > 10000 |  |  | CC(Nc1ncnc2[nH]cnc12)c1cc2cccc(Cl)c2c(OC2CCN(S(C)(=O)=O)CC2)n1 (centres unmarked) [Compound 54] | < 1000 | 
20 | > 10000 | < 1000 | < 10000 |  |  | Cc1cccc2cc([C@H](C)Nc3ncnc4[nH]cnc34)nc(OC3CCN(S(C)(=O)=O)CC3)c12 [Compound 61] | < 1000 | 
21 | > 10000 | < 1000 | > 10000 |  |  | CC(Nc1ncnc2[nH]cnc12)c1cc2cccc(Cl)c2c(CN2CCN(S(C)(=O)=O)CC2)n1 (centres unmarked) [Compound 59] | < 1000 | 
22 | > 10000 | < 1000 | > 10000 |  |  | CC(Nc1ncnc2[nH]cnc12)c1cc2ccccc2c(OC2CCN(C(C)C)CC2)n1 (centres unmarked) [Compound 35] | < 100 | 
23 | > 10000 | < 100 | > 10000 |  |  | CC(C)N1CCC(Oc2nc(Cn3nc(-c4cn[nH]c4)c4c(N)ncnc43)cc3cccc(Cl)c23)CC1 [Compound 57] | < 100 | 
24 | < 10000 | < 100 | < 10000 |  |  | Cc1cccc2cc(Cn3nc(-c4cn[nH]c4)c4c(N)ncnc43)nc(OC3CCN(C(C)C)CC3)c12 [Compound 13] | < 100 | 
25 | > 10000 | < 100 | > 10000 |  |  | Cc1cccc2cc(Cn3nc(-c4cn[nH]c4)c4c(N)ncnc43)nc(OC3CCNCC3)c12 [Compound 9] | < 10000 | 
26 | < 1000 | < 100 | < 100 |  |  | Cc1cccc2cc(Cn3nc(-c4ccc5oc(N)nc5c4)c4c(N)ncnc43)nc(N3CCCC3)c12 [Compound 26] | < 1000 | 
27 | > 10000 | < 100 | > 10000 |  |  | CN1CCC(Oc2nc(Cn3nc(-c4cn[nH]c4)c4c(N)ncnc43)cc3cccc(Cl)c23)CC1 [Compound 55] | < 100 | 
28 | > 10000 | < 1000 | > 10000 |  |  | CCN1CCC(Oc2nc(Cn3nc(-c4cn[nH]c4)c4c(N)ncnc43)cc3cccc(Cl)c23)CC1 [Compound 56] | < 100 | 
29 | < 1000 | < 100 | < 100 |  |  | CCN1CCC(Oc2nc(Cn3nc(-c4ccc5oc(N)nc5c4)c4c(N)ncnc43)cc3cccc(C)c23)CC1 [Compound 6] | < 100 | 
